Biological target: T1, recombinant human GR (Homo sapiens, UniProt P04150)
T1 construct: purchased Panvera/Invitrogen P2812 (kit P2893)
T1 sequence (P04150 1-777): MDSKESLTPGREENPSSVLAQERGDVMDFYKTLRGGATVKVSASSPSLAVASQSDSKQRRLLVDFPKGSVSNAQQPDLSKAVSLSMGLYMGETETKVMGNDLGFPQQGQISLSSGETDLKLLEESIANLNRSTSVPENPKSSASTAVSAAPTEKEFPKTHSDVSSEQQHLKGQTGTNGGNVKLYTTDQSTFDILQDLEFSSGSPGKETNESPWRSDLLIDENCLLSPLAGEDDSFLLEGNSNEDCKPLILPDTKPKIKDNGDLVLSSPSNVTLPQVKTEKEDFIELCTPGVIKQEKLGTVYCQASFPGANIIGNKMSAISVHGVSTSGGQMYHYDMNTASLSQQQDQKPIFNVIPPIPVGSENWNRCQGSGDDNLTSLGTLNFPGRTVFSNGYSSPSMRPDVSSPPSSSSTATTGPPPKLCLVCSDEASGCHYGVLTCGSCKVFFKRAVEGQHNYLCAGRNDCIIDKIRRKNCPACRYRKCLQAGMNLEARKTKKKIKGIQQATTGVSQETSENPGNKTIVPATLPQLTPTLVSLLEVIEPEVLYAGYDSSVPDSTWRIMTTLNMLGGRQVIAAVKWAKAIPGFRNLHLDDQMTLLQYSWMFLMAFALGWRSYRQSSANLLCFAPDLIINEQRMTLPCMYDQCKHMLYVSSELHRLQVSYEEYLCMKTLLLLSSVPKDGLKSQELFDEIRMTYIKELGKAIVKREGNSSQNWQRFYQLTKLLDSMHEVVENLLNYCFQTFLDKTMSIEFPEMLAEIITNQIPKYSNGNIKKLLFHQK
Test: Human Glucocorticoid Receptor (GR) Assay (fluorescence polarization, Panvera/Invitrogen kit)
Type: binding
Conditions: fluorescence polarization; GS Red tracer; 2 hours at room temperature; 100% control 10 μM Dexamethasone; read-out: Inhibition of GR binding, IC50
Method in brief: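 Fluorescence polarization competition with recombinant GR and GS Red fluorescent ligand plus stabilizing peptide and DTT in potassium phosphate/sodium molybdate/EDTA buffer with DMSO. Incubated 2 hours at room temperature in the dark; 0% control DMSO, 100% control 10 μM dexamethasone.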

Row | SMILES | IC50 [nM]
1 | COCC(=O)O[C@]1(C(=O)SCC#N)CC[C@H]2[C@@H]3CCC4=Cc5c(cnn5-c5ccc(F)c(CO)c5)C[C@]4(C)[C@H]3[C@@H](O)C[C@@]21C [Example 140, (1R,3aS,3bS,10R,10bS,11S,12aS)-1-{[(Cyanomethyl)thio]carbonyl}-7-[4-fluoro-3-(hydroxymethyl)phenyl]-11a,12a-dimethyl-1,2,3,3a,3b,4,5,7,10,10a,10b,11,12,12a-tetradecahydrocyclopenta[5,6]naphtho[1,2-f]indazol-1-yl Methoxyacetate] | 2.3
2 | C[C@]12Cc3cnn(-c4ccc(F)cc4)c3C=C1CC[C@@H]1[C@@H]2[C@@H](O)C[C@@]2(C)[C@H]1CC[C@]2(OC(=O)c1nccs1)C(=O)SCC#N [Example 39, (1R,3aS,3bS,10aR,10bS,11S,12aS)-1-{[(Cyanomethyl)thio]carbonyl}-7-(4-fluorophenyl)-11-hydroxy-10a,12a-dimethyl-1,2,3,3a,3b,4,5,7,10,10a,10b,11,12,12a-tetradecahydropcyclopenta[5,6]naphtho[1,2-f]indazol-1-yl 1,3-thiazole-2-carboxylate] | 3.3
3 | C=CCSC(=O)[C@@]1(OC(=O)CC)CC[C@H]2[C@@H]3CCC4=Cc5c(cnn5-c5ccc(F)cc5)C[C@]4(C)[C@H]3[C@@H](O)C[C@@]21C [Example 23, (1R,3aS,3bS,10aR,10bS,11S,12aS)-7-(4-Fluorophenyl)-11-hydroxy-10a,12a-dimethyl-1-[(prop-2-en-1-ylthio)carbonyl]-1,2,3,3a,3b,4,5,7,10,10a,10b,11,12,12a-tetradecahydropcyclopenta[5,6]naphtho[1,2-f]indazol-1-yl propanoate] | 13
4 | C[C@]12Cc3cnn(-c4ccc(F)cc4)c3C=C1CC[C@@H]1[C@@H]2[C@@H](O)C[C@@]2(C)[C@H]1CC[C@]2(OC(=O)c1ccno1)C(=O)SCCO [Example 61, (1R,3aS,3bS,10aR,10bS,11S,12aS)-7-(4-Fluorophenyl)-11-hydroxy-1-{[(2-hydroxy-ethyl)thio]carbonyl}-10a,12a-dimethyl-1,2,3,3a,3b,4,5,7,10,10a,10b. 1,12,12a-tetradecahydrocyclopenta[5,6]naphtho[1,2-f]indazol-1-yl isoxazole-5-carboxylate] | 8.3
5 | C[C@]12Cc3cnn(-c4ccc(F)cc4)c3C=C1CC[C@@H]1[C@@H]2[C@@H](O)C[C@@]2(C)[C@H]1CC[C@]2(OC(=O)c1ccco1)C(=O)SCC#N [Example 7, (1R,3aS,3bS,10aR,10bS,11S,12aS)-1-{[(Cyanomethyl)thio]carbonyl}-7-(4-fluorophenyl)-11-hydroxy-10a,12a-dimethyl-1,2,3,3a,3b,4,5,7,10,10a,10b,11,12,12a-tetradecahydrocyclopenta[5,6]naphtho[1,2-f]indazol-1-yl 2-furoate] | 5.6
6 | CC(=O)OCSC(=O)[C@@]1(OC(=O)c2ccco2)CC[C@H]2[C@@H]3CCC4=Cc5c(cnn5-c5ccc(F)cc5)C[C@]4(C)[C@H]3[C@@H](O)C[C@@]21C [Example 94, (1R,3aS,3bS,10aR,10bS,11S,12aS)-1-({[(Acetyloxy)methyl]sulfanyl}carbonyl)-7-(4-fluorophenyl)-11-hydroxy-10a,12a-dimethyl-1,2,3,3a,3b,4,5,7,10,10a,10b,11,12,12a-tetradecahydrocyclopenta[5,6]naphtho[1,2-f]indazol-1-yl furan-2-carboxylate] | 5.9
7 | CSCOC(=O)[C@@]1(OCSC)CC[C@H]2[C@@H]3CCC4=Cc5c(cnn5-c5ccc(F)cc5)C[C@]4(C)[C@H]3[C@@H](O)C[C@@]21C [Example 120, (Methylsulfanyl)methyl(1R,3aS,3bS,10aR,10bS,11S,12aS)-7-(4-fluorophenyl)-11-hydroxy-10a,12a-dimethyl-1-[(methylsulfanyl)methoxy]-1,2,3,3a,3b,4,5,7,10,10a,10b,11,12,12a-tetradecahydrocyclopenta[5,6]naphtho[1,2-f]indazole-1-carboxylate] | 7
8 | CCC(=O)O[C@]1(C(=O)SCCOC(C)=O)CC[C@H]2[C@@H]3CCC4=Cc5c(cnn5-c5ccc(F)cc5)C[C@]4(C)[C@H]3[C@@H](O)C[C@@]21C [Example 95, (1R,3aS,3bS,10aR,10bS,11S,12aS)-1-({[2-(Acetyloxy)ethyl]sulfanyl}carbonyl)-7-(4-fluorophenyl)-11-hydroxy-10a,12a-dimethyl-1,2,3,3a,3b,4,5,7,10,10a,10b,11,12,12a-tetradecahydrocyclopenta[5,6]naphtho[1,2-f]indazol-1-yl propanoate] | 4.7
9 | CSC(=O)[C@@]1(OC(=O)c2ccco2)CC[C@H]2[C@@H]3CCC4=Cc5c(cnn5-c5ccc(F)nc5)C[C@]4(C)[C@H]3[C@@H](O)C[C@@]21C [Example 167, (1R,3aS,3bS,10aR,10bS,11S,12aS)-7-(6-Fluoropyridin-3-yl)-11-hydroxy-10a,12a-dimethyl-1-[(methylsulfanyl)carbonyl]-1,2,3,3a,3b,4,5,7,10,10a,10b,11,12,12a-tetradecahydrocyclopenta[5,6]naphtho[1,2-f]indazol-1-yl furan-2-carboxylate] | 5.6
10 | C[C@]12Cc3cnn(-c4ccc(F)cc4)c3C=C1CC[C@@H]1[C@@H]2[C@@H](O)C[C@@]2(C)[C@H]1CC[C@]2(OC(=O)C1CC1)C(=O)SCC#CCO [Example 37, (1R,3aS,3bS,10aR,10bS,11S,12aS)-7-(4-Fluorophenyl)-11-hydroxy-{[(4-hydroxybut-2-yn-1-yl)thio]carbonyl}-10a,12a-dimethyl-1,2,3,3a,3b,4,5,7,10,11a,10b,11,12,12a-tetradecahydrocyclopenta[5,6]naphtho[1,2-f]indazol-1-yl cyclopropanecarboxylate] | 5.7
11 | CN(C)C(=O)SC(=O)[C@@]1(OC(=O)c2ccco2)CC[C@H]2[C@@H]3CCC4=Cc5c(cnn5-c5cc(F)cc(F)c5)C[C@]4(C)[C@H]3[C@@H](O)C[C@@]21C [Example 107, (1R,3aS,3bS,10aR,10bS,11S,12aS)-7-(3,5-Difluorophenyl)-1-{[(dimethylcarbamoyl)sulfanyl]carbonyl}-11-hydroxy-10a,12a-dimethyl-1,2,3,3a,3b,4,5,7,10,10a,10b,11,12,12a-tetradecahydrocyclopenta[5,6]naphtho[1,2-f]indazol-1-yl furan-2-carboxylate] | 59
12 | Cn1cc(C(=O)O[C@]2(C(=O)SCF)CC[C@H]3[C@@H]4CCC5=Cc6c(cnn6-c6ccc(F)cc6)C[C@]5(C)[C@H]4[C@@H](O)C[C@@]32C)nn1 [Example 48, (1R,3aS,3bS,10aR,10bS,11S,12aS)-1-{[(Fluoromethyl)thio]carbonyl}-7-(4-fluoro-phenyl)-11-hydroxy-10a,12a-dimethyl-1,2,3,3a,3b,4,5,7,10,10a,10b,11,12,12a-tetradecahydrocyclopenta[5,6]naphtho[1,2-f]indazol-1-yl 1-methyl-1H-1,2,3-triazole-4-carboxylate] | 4.9
13 | C[C@]12Cc3cnn(-c4ccc(F)cc4)c3C=C1CC[C@@H]1[C@@H]2[C@@H](O)C[C@@]2(C)[C@H]1CC[C@]2(OC(=O)c1nccs1)C(=O)SCC#CCO [Example 41, (1R,3aS,3bS,10aR,10bS,11S,12aS)-7-(4-Fluorophenyl)-11-hydroxy-{[(4-hydroxy-but-2-yn-1-yl)thio]carbonyl}-10a,12a-dimethyl-1,2,3,3a,3b,4,5,7,10,10a,10b,11,12,12a-tetradecahydrocyclopenta[5,6]naphtho[1,2-f]indazol-1-yl 1,3-thiazole-2-carboxylate] | 4.1
14 | C[C@]12Cc3cnn(-c4cnccn4)c3C=C1CC[C@@H]1[C@@H]2[C@@H](O)C[C@@]2(C)[C@H]1CC[C@]2(OC(=O)C1CC1)C(=O)SCCO [Example 190, (1R,3aS,3bS,10aR,10bS,11S,12aS)-11-Hydroxy-{[(2-hydroxyethyl)sulfanyl]carbonyl}-10a,12a-dimethyl-7-pyrazin-2-yl-1,2,3,3a,3b,4,5,7,10,10a,10b,11,12,12a-tetradecahydrocyclopenta[5,6]naphtho[1,2-f]indazol-1-yl cyclopropane carboxylate] | 3.7
15 | CCC(=O)O[C@]1(C(=O)SCCF)CC[C@H]2[C@@H]3CCC4=Cc5c(cnn5-c5ccc(F)cc5)C[C@]4(C)[C@H]3[C@@H](O)C[C@@]21C [Example 26, (1R,3aS,3bS,10aR,10bS,11S,12aS)-1-{[(2-Fluoroethyl)thio]carbonyl}-7-(4-fluoro-phenyl)-11-hydroxy-10a,12a-dimethyl-1,2,3,3a,3b,4,5,7,10,10a,10b,11,12,12a-tetradecahydrocyclopenta[5,6]naphtho[1,2-f]indazol-1-yl propanoate] | 4.3
